Test [1] relates to superfused rat pituitary cell system. The test is described as follows: GH release in superfused rat pituitary cell system (in vitro). Format: cell-based. As to conditions: 0.1-0.5 nM, 3 min administration, superfused rat pituitary cells. As to the method:
The compounds of the present invention were tested both in vitro and in vivo. The levels of GH released in vivo by the synthetic peptides, following their intravenous (i.v.) or subcutaneous (sc.) injection in rats, are shown in Tables 2 and 3 respectively. The potencies of the peptides, based on 4-point assays, were calculated in all the Examples of this specification, by the factorial analyses of Bliss and Marks with 95% confidence limits.
Growth hormone releasing activity in vitro is assayed by using a superfused rat pituitary cell system as described in S. Vigh and A. V. Schally, Peptides 5, Suppl: 241-347, 1984, which is incorporated by reference herein. Each peptide, hGH-RH (1-29)NH2 (as control) and the synthetic peptide hGH-RH analogs of the present invention, is administered for 3 minutes (1 ml. perfusate) at various concentrations as shown below. Fractions of 1 ml are coIlected and the GH content in each is determined by RIA.

The next test relates to GH-deficient children. As to conditions: subcutaneously twice a day; cited from earlier work.

Non-standard residues stand in square brackets, D forms with d. Residues, ends and D or L forms follow the SMILES beside them. No end group written: not given here. *: point of attachment. Desaminotyrosyl = O=C(CCc1ccc(O)cc1)*; Agmatine = N=C(N)NCCCCN*; Nle = CCCC[C@H](N)C(=O)O; Orn = NCCC[C@H](N)C(=O)O; Abu = CC[C@H](N)C(=O)O

On to `CCCC[C@H](NC(=O)[C@@H](NC(=O)[C@H](CC(=O)O)NC(=O)[C@H](CCC(N)=O)NC(=O)[C@H](CC(C)C)NC(=O)[C@H](CC(C)C)NC(=O)[C@H](CCCN)NC(=O)[C@H](CCCNC(=N)N)NC(=O)[C@H](C)NC(=O)[C@H](CO)NC(=O)[C@H](CC(C)C)NC(=O)[C@H](CCC(N)=O)NC(=O)[C@H](CC)NC(=O)[C@H](CC(C)C)NC(=O)[C@@H](NC(=O)[C@H](CCCN)NC(=O)[C@H](CCCNC(=N)N)NC(=O)[C@H](Cc1ccc(O)cc1)NC(=O)[C@H](CO)NC(=O)[C@H](CC(N)=O)NC(=O)[C@@H](NC(=O)[C@H](Cc1ccccc1)NC(=O)[C@@H](NC(=O)[C@H](C)NC(=O)[C@H](CC(=O)O)NC(=O)[C@H](C)NC(=O)CCc1ccc(O)cc1)[C@@H](C)CC)[C@@H](C)O)C(C)C)[C@@H](C)CC)C(=O)N[C@@H](CO)C(=O)NCCCCNC(=N)N` [Example I, (Dat^1,Orn ^12,21,Abu^15,Nle^27,Agm^29)hGH-RH(1-29)] (Desaminotyrosyl-ADAIFTNSYR[Orn]VL[Abu]QLSAR[Orn]LLQDI[Nle]S-Agmatine), for which, in test [1], the “Potency relative to hGH-RH(1-29)NH2 = 1 (GH release in vitro)” value worked out at 5.9. The same measure, in the same setting: the value for `CCCC[C@H](NC(=O)[C@@H](NC(=O)[C@H](CC(=O)O)NC(=O)[C@H](CCC(N)=O)NC(=O)[C@H](CC(C)C)NC(=O)[C@H](CC(C)C)NC(=O)[C@H](CCCN)NC(=O)[C@H](CCCNC(=N)N)NC(=O)[C@H](C)NC(=O)[C@H](CO)NC(=O)[C@H](CC(C)C)NC(=O)[C@H](CCC(N)=O)NC(=O)[C@H](CC)NC(=O)[C@H](CC(C)C)NC(=O)[C@@H](NC(=O)[C@H](CCCCN)NC(=O)[C@H](CCCNC(=N)N)NC(=O)[C@H](Cc1ccc(O)cc1)NC(=O)[C@H](CO)NC(=O)[C@H](CC(N)=O)NC(=O)[C@@H](NC(=O)[C@H](Cc1ccccc1)NC(=O)[C@@H](NC(=O)[C@H](C)NC(=O)[C@H](CC(=O)O)NC(=O)[C@H](C)NC(=O)CCc1ccc(O)cc1)[C@@H](C)CC)[C@@H](C)O)C(C)C)[C@@H](C)CC)C(=O)N[C@@H](CO)C(=O)NCCCCNC(=N)N` [Example II, (Dat^1,Abu^15,Orn^21,Nle^27,Agm^29)hGH-RH(1-29)] (Desaminotyrosyl-ADAIFTNSYRKVL[Abu]QLSAR[Orn]LLQDI[Nle]S-Agmatine) was 6.4; that for `CCCC[C@H](NC(=O)[C@@H](NC(=O)[C@H](CC(=O)O)NC(=O)[C@H](CCC(N)=O)NC(=O)[C@H](CC(C)C)NC(=O)[C@H](CC(C)C)NC(=O)[C@H](CCCCN)NC(=O)[C@H](CCCNC(=N)N)NC(=O)[C@H](C)NC(=O)[C@H](CO)NC(=O)[C@H](CC(C)C)NC(=O)[C@H](CCC(N)=O)NC(=O)[C@H](CC)NC(=O)[C@H](CC(C)C)NC(=O)[C@@H](NC(=O)[C@H](CCCN)NC(=O)[C@H](CCCNC(=N)N)NC(=O)[C@H](Cc1ccc(O)cc1)NC(=O)[C@H](CO)NC(=O)[C@H](CC(N)=O)NC(=O)[C@@H](NC(=O)[C@H](Cc1ccccc1)NC(=O)[C@@H](NC(=O)[C@H](C)NC(=O)[C@H](CC(=O)O)NC(=O)[C@H](C)NC(=O)CCc1ccc(O)cc1)[C@@H](C)CC)[C@@H](C)O)C(C)C)[C@@H](C)CC)C(=O)N[C@@H](CO)C(=O)NCCCCNC(=N)N` [Example III, (Dat^1,Orn^12,Abu^15,Nle^27,Agm^29)hGH-RH(1-29)] (Desaminotyrosyl-ADAIFTNSYR[Orn]VL[Abu]QLSARKLLQDI[Nle]S-Agmatine) was 3.8. On to “hGH-RH(1-29)NH2 (YADAIFTNSYRKVLGQLSARKLLQDIMSR-NH2; UniProt P01286 32-60, looked up, fragment)”, for which the “share of GH-deficient children in whom linear growth was promoted” value with GH-deficient children is recorded as “approximately 50%”.

Values taken from patent US5792747A, “Highly potent agonists of growth hormone releasing hormone” (The Administrators of the Tulane Educational Fund, priority 1995, dated 1998).
